Data reported in the NIST ThermoML archive (doi:10.1016/j.jct.2015.12.029).
± gives the expanded uncertainty stated by the source.

Columns and labels:
[1] = 100 kPa, Liquid, Vibrating tube method
[2] = mn = molality of the nth substance listed, in mol/kg; details: 100 kPa, Liquid, Vibrating tube method, m2 = 0

SMILES: CCCCO [butan-1-ol]
- mass density ([1]; 283.15 K): 817.103 ± 0.22 kg/m3
- mass density ([1]; 288.15 K): 813.337 ± 0.22 kg/m3
- mass density ([1]; 293.15 K): 809.548 ± 0.22 kg/m3
- mass density ([1]; 298.15 K): 805.738 ± 0.22 kg/m3
- mass density ([1]; 303.15 K): 801.901 ± 0.22 kg/m3
- mass density ([1]; 308.15 K): 798.032 ± 0.22 kg/m3
- mass density ([1]; 313.15 K): 794.128 ± 0.23 kg/m3
- mass density ([1]; 318.15 K): 790.181 ± 0.23 kg/m3

SMILES: CCCCO [butan-1-ol] + CCCCn1cc[n+](C)c1.F[B-](F)(F)F
- mass density ([2]; 283.15 K): 817.103 ± 0.23 kg/m3
- mass density ([2]; 288.15 K): 813.337 ± 0.23 kg/m3
- mass density ([2]; 293.15 K): 809.548 ± 0.23 kg/m3
- mass density ([2]; 298.15 K): 805.738 ± 0.23 kg/m3
- mass density ([2]; 303.15 K): 801.901 ± 0.23 kg/m3
- mass density ([2]; 308.15 K): 798.032 ± 0.23 kg/m3
- mass density ([2]; 313.15 K): 794.128 ± 0.23 kg/m3
- mass density ([2]; 318.15 K): 790.181 ± 0.23 kg/m3

SMILES: CCCCO [butan-1-ol] + CCn1cc[n+](C)c1.F[B-](F)(F)F
- mass density ([2]; 283.15 K): 817.103 ± 0.23 kg/m3
- mass density ([2]; 288.15 K): 813.337 ± 0.23 kg/m3
- mass density ([2]; 293.15 K): 809.548 ± 0.23 kg/m3
- mass density ([2]; 298.15 K): 805.738 ± 0.23 kg/m3
- mass density ([2]; 303.15 K): 801.901 ± 0.23 kg/m3
- mass density ([2]; 308.15 K): 798.032 ± 0.23 kg/m3
- mass density ([2]; 313.15 K): 794.128 ± 0.23 kg/m3
- mass density ([2]; 318.15 K): 790.181 ± 0.23 kg/m3
